# Reference: patent publication US20190008870A1, “COMPOSITIONS AND METHODS FOR LIPID METABOLISM DISORDER” (JANSFAT BIOTECHNOLOGY CO., LTD., priority 2016, published 2019)
# Assays:
# fatty liver = experiment: Gross morphology and H&E staining of liver of HFD mice; assay type: in vivo
# Procedure: Mice liver and epididymal fat pads were cut and soaked in formalin, dehydrated through graded alcohols and embedded in paraffin. Specimens of liver tissues and epididymal fat pads fixed with formalin (4%) were embedded in paraffin for one hour at 4° C., cut into 4-μm-thick sections, and subjected to H&E staining before examination by light microscope.
# eNOS = experiment: IHC staining of eNOS in epididymal fat pads; assay type: in vivo, mice; details: HFD 14 weeks, KMUP-1 2.5 mg/kg/day, Control 50.5
# Procedure: (§1) For IHC of MMP-9/TNFα, HSL/p-HSL/ATGL and eNOS/IL-10, antigen retrieval of de-paraffinated sections was performed in Dako target retrieval solution, pH 9.0, in a vegetable steamer followed by the quenching of endogenous peroxidase activity with 3.0% H2O2 in methanol. Sections were then incubated with specific primary antibodies overnight at 4° C. in a humidified chamber. The antibodies used included rabbit polyclonal anti-eNOS (1:50 dilution) (Abcam, Cambridge, UK) or rabbit monoclonal anti-cleaved caspase-3 (1:50 dilution) (Cell Signaling, U.S.A.). The sections were then examined using a DAKO REAL EnVision™ Detection System kit (DAKO, Carpinteria, Calif., U.S.A.) and counterstained with hematoxylin. Images were obtained through a Nikon Eclipse TE200-S microscope.
# LXRα = LXRα expression in HepG2 cells; assay type: cell-based; details: 10^−9-10^−5 M
# Procedure: (§2) The HepG2 hepatoma cell line was purchased from the American Type Culture Collection (ATCC, Manassas, Va., U.S.A.). Cells were cultured in Dulbecco's Modified Eagle's Medium (DMEM). The culture media was supplemented with 5% heat-inactivated FBS, penicillin (100 U/mL) and streptomycin (100 μg/mL). Cells were grown in a humidified atmosphere containing 5% CO2 at 37° C., in which the oxygen tension in the incubator was held at 140 mmHg (20% O2, v/v; normoxic conditions). […] Then the targeted drugs solution was incubated with the cells for 24 hours, followed by protein extraction. The targeted drugs were added to the […].
# (§3) HepG2 cells were treated with various concentrations of targeted drugs for 24 hours. Reactions were terminated by washing twice with cold PBS, and the cells were then harvested. Proteins in the whole-cell lysate were homogenized in an ice-cold lysis buffer and a protease inhibitor (Sigma-Aldrich, St. Louis, Mo., U.S.A.). The homogenate was centrifuged at 90,000×g for 15 minutes at 4° C., and supernatant was recovered as the total cellular protein. […]
# ApoA-I = ApoA-I expression in HepG2 cells; assay type: cell-based; details: 10^−9-10^−5 M
# Procedure: as §2, §3
# HSL [1] = experiment: HSL immunoreactivity in HepG2 cells; assay type: cell-based; details: 24 hours
# Procedure: (§4) To determine that KMUP-1 or targeted drugs can affect PKA, we incubated KMUP-1 (10^−4, 10^−5, 10^−6 M) or targeted drugs with HepG2 cells for 24 hours to measure the protein expressions of PKA/PKG by Western blotting or PKA/PKG and HSL immunoreactivities by fluorescence staining, combined with image scanning in the absence or presence of oxidized LDL (200 μg/mL).
# PDE-5A = experiment: Expression of PDE-5A (Table 12); details: Control group 100 (%)
# HSL [2] = experiment: IHC staining of HSL in epididymal fat pads; assay type: in vivo, mice; details: HFD 14 weeks, KMUP-1 2.5 mg/kg/day, Control 34
# Procedure: as §1
# LDLRs = experiment: IHC staining of LDLRs in livers of HFD mice; assay type: in vivo; details: HFD animals, protection and treatment groups
# PKA/PKG = experiment: Hepatic PKA/PKG expression in HFD mice; assay type: in vivo; details: Control printed 550%
# IL-10 = experiment: IHC staining of IL-10 in epididymal fat pads; assay type: in vivo, mice; details: HFD 14 weeks, KMUP-1 2.5 mg/kg/day, Control 31
# Procedure: as §1
# PKG = PKG expression/immunoreactivity in HepG2 cells; assay type: cell-based
# Procedure: (§5) HepG2 cells were treated with various concentrations of targeted drugs for 24 hours. Reactions were terminated by washing twice with cold PBS, and the cells were then harvested. Proteins in the whole-cell lysate were homogenized in an ice-cold lysis buffer and a protease inhibitor (Sigma-Aldrich, St. Louis, Mo., U.S.A.). The homogenate was centrifuged at 90,000×g for 15 minutes at 4° C., and supernatant was recovered as the total cellular protein. Cytosolic and membrane fractions of HepG2 cells were prepared using a CNM (Cytosol Nuclear Membrane) compartmental protein extraction kit (BioChain Institute Inc., Hayward, Calif., U.S.A.) according to the manufacturer's instructions. All of the fractionated protein solutions were stored at −80° C. until analysis. To measure the expression levels of proteins by drugs, the total cell protein was extracted after incubation with treatments for 24 hours and then Western blotting analysis was performed as described previously.
# as §4
# TNF-α = experiment: IHC staining of TNF-α in epididymal fat pads; assay type: in vivo, mice; details: HFD 14 weeks, KMUP-1 2.5 mg/kg/day, Control 36
# Procedure: as §1
# PKA = PKA expression/immunoreactivity in HepG2 cells; assay type: cell-based
# Procedure: as §5, §4
# [3] = HepG2 cells, 10, 20, 40 μM, in the presence of LDL (500 μg/mL)
smiles,measurement,setting,value
"Cn1c(=O)c2c(ncn2CCN2CCN(c3ccccc3Cl)CC2)n(C)c1=O [KMUP-1, 7-[2-[4-(2-chlorophenyl)piperazinyl]ethyl]-1,3-dimethylxanthine]",Fatty liver (gross morphology),"fatty liver; drinking 2.5 mg/200 ml water, protective group",markedly decreased
same,fat globules and Mallory's hyaline bodies (H&E staining of liver),"fatty liver; oral 2.5 mg/kg, last 6 weeks/14 weeks",reduced
same,"Immunorespons percentages, eNOS",eNOS,39%
same,LXRα expression,LXRα,concentration-dependently increased
same,ApoA-I expression,ApoA-I,concentration-dependently increased
same,HSL immunoreactivity (green fluorescence),HSL [1],increased
same,PDE-5A expression,PDE-5A,64.5 ± 4.5%
same,"Immunorespons percentages, HSL",HSL [2],57%
same,hepatic LDLRs (IHC staining),LDLRs,increased
same,PKA/PKG expression,"PKA/PKG; drinking KMUP-1, Protection group",250%
same,PKA/PKG expression,"PKA/PKG; drinking KMUP-1, Treatment group",100%
same,"Immunorespons percentages, IL-10",IL-10,56%
same,PKG immunoreactivity,PKG; HepG2 cells (data not shown),not significantly affected
same,expression of PKG,PKG; [3],increased
same,"Immunorespons percentages, TNF-α",TNF-α,22%
same,oxLDL-induced reduction of PKA expression,"PKA; HepG2 cells, 1, 10, 100 μM, 200 μg/mL oxLDL",reversed
same,PKA protein expression,PKA; [3],could not significantly affect
same,PKA immunoreactivity (green fluorescence),"PKA; HepG2 cells, 24 hours",increased
